Assay results taken from ChEMBL document CHEMBL6087476, “Positive Charge-Concentrated Dimeric Lipopeptides with Enhanced Protease Resistance: A Potential Solution for Systemic Bacterial Infections” (J Med Chem, 2025).
Values after ≈ are worked out from the molar mass of the structure shown. Active and inactive are the calls of the source. No cut-off for these calls is given here.

Assays:
[1] = tested on: Salmonella typhimurium; assay: Antimicrobial activity against Salmonella typhimurium 7731 assessed as increase in absorbance incubated for 20 to 22 hrs; assay type: functional, Salmonella enterica subsp. enterica serovar Typhimurium; conditions: Salmonella enterica, time 20-22 hrs
[2] = tested on: Escherichia coli; assay: Antibacterial activity against Escherichia coli ATCC 25922 injected intraperitoneally in ICR mouse assessed as reduction in symptoms by measuring disorganized hepatic cords in liver at 10 mg/kg, ip measured after 12 hrs by H and E staining based assay; assay type: functional, organism-based
[3] = Toxicity in ICR mouse assessed as blood urea nitrogen (BUN) level in serum at 5 to 20 mg/kg, ip measured after 3 days; assay type: organism-based; conditions: in vivo, 72 h, dose 5-20 mg/kg, time 3 day
[4] = tested on: Escherichia coli; assay: Resistance fold, ratio of MIC for Escherichia coli ATCC 25922 measured after 30 day passage period to MIC for Escherichia coli ATCC 25922; assay type: functional
[5] = tested on: Escherichia coli; assay: Antimicrobial activity against Escherichia coli ATCC 25922 assessed as increase in absorbance at 8 mg/ml incubated for 8 hrs in presence of trypsin; assay type: functional, organism-based
[6] = Toxicity in ICR mouse assessed as reduced mobility at 20 mg/kg, ip measured after 1 hr; assay type: organism-based; conditions: in vivo
[7] = tested on: Escherichia coli; assay: Antimicrobial activity against Escherichia coli ATCC 25922 assessed as increase in absorbance at 8 mg/ml incubated for 8 hrs in presence of pepsin; assay type: functional, organism-based
[8] = tested on: Mus musculus; assay: Anti-inflammatory activity against Escherichia coli ATCC 25922-induced peritonitis ICR mouse model assessed as decrease in IL-6 level in serum spleen at 10 mg/kg, ip measured after 12 hrs; assay type: functional, organism-based
[9] = tested on: Escherichia coli; assay: Antimicrobial activity against Escherichia coli ATCC 25922 assessed as increase in absorbance at MIC concentration in presence of […] ug/ml Lipopolysaccharide incubated for 8 hrs; assay type: functional, organism-based; conditions: dose 64.0 µg/ml
[10] = tested on: Pseudomonas aeruginosa; assay: Antimicrobial activity against Pseudomonas aeruginosa 25349 assessed as increase in absorbance incubated for 20 to 22 hrs; assay type: functional; conditions: time 20-22 hrs
[11] = tested on: Acinetobacter baumannii; assay: Antimicrobial activity against Acinetobacter baumannii AB1901 assessed as increase in absorbance incubated for 20 to 22 hrs; assay type: functional; conditions: time 20-22 hrs
[12] = Cytotoxicity against porcine IPEC-J2 cells assessed as cell death measured after 18 to 24 hrs by MTT assay; assay type: functional; conditions: Sus scrofa, time 18-24 hrs
[13] = tested on: Escherichia coli; assay: Antimicrobial activity against Escherichia coli ATCC 25922 assessed as increase in absorbance at MIC concentration in presence of < 8 ug/ml Lipopolysaccharide incubated for 8 hrs; assay type: functional, organism-based; conditions: dose < 8.0 µg/ml
[14] = tested on: Escherichia coli; assay: Antimicrobial activity against Escherichia coli ATCC 25922 assessed as increase in absorbance incubated for 4 hrs in presence of 25% serum; assay type: functional, organism-based
[15] = tested on: Escherichia coli; assay: Induction of membrane damage in Escherichia coli ATCC 25922 assessed as damaged membrane surface (irregular vesicles protrusions) at 8 uM measured after 1 hr incubation by SEM analysis; assay type: functional, organism-based
[16] = Hemolytic activity in healthy human RBC assessed as hemolysis incubated for 1 hr by microplate reader; assay type: toxicity, cell-based; conditions: erythrocyte
[17] = tested on: Escherichia coli; assay: Antimicrobial activity against Escherichia coli ATCC 25922 assessed as increase in absorbance incubated for 20 to 22 hrs in presence of K+ physiological salt; assay type: functional, organism-based; conditions: time 20-22 hrs
[18] = tested on: Pseudomonas aeruginosa; assay: Antimicrobial activity against Pseudomonas aeruginosa 27853 assessed as increase in absorbance incubated for 20 to 22 hrs; assay type: functional; conditions: time 20-22 hrs
[19] = tested on: Cell membrane; assay: Induction of Outer membrane permeability in Escherichia coli ATCC 25922 incubated for 30 mins by N-phenyl-1-naphthylamine (NPN) uptake assay; assay type: subcellular; conditions: dose 1-16 µM
[20] = tested on: Escherichia coli; assay: Antibacterial activity against Escherichia coli ATCC 25922 injected intraperitoneally in ICR mouse assessed as reduction bacterial load in kidney at 10 mg/kg, ip measured after 12 hrs by H and E staining based assay; assay type: functional, organism-based
[21] = tested on: Escherichia coli; assay: Antibacterial activity against Escherichia coli ATCC 25922 injected intraperitoneally in ICR mouse assessed as reduction in symptoms by measuring atrophy of renal glomeruli at 10 mg/kg, ip measured after 12 hrs by H and E staining based assay; assay type: functional, organism-based
[22] = Stability of compound assessed as pepsin (unknown origin)-mediated compound structural integrity change at 8 mg/ml incubated for 1 to 8 hrs by RP-HPLC analysis; assay type: ADME; conditions: human, time 1-8 hrs
[23] = tested on: Escherichia coli; assay: Antimicrobial activity against Escherichia coli ATCC 25922 assessed as increase in absorbance at 8 mg/ml incubated for 8 hrs in presence of chymotrypsin; assay type: functional, organism-based
[24] = tested on: Cell membrane; assay: Induction of depolarization of cytoplasmic membrane (CM) in Escherichia coli ATCC 25922 assessed as fluorescence changes at 1/2 to 3 times of MIC by fluorescent probe DiSC3-5 assay; assay type: subcellular; conditions: time 1000-3000 sec
[25] = target: Trypsin (Homo sapiens, UniProt P07477+P07478+P35030); assay: Stability of compound assessed as trypsin (unknown origin)-mediated compound structural integrity change at 8 mg/ml incubated for 1 to 8 hrs by RP-HPLC analysis; assay type: ADME, protein assay; conditions: time 1-8 hrs
[26] = Toxicity in ICR mouse assessed as slight manifestation of stooping at 20 mg/kg, ip measured after 1 hr; assay type: organism-based; conditions: in vivo
[27] = tested on: Escherichia coli; assay: Bactericidal activity against Escherichia coli ATCC 25922 assessed as reduction in bacterial viability at 4 uM measured within 30 mins; assay type: functional; conditions: 0.5 h
[28] = tested on: Escherichia coli; assay: Antimicrobial activity against Escherichia coli ATCC 25922 assessed as increase in absorbance incubated for 20 to 22 hrs in presence of Fe3+ physiological salt; assay type: functional, organism-based; conditions: time 20-22 hrs
[29] = target: Chymotrypsin (Homo sapiens, UniProt Q99895+P17538+P40313+Q6GPI1); assay: Stability of compound assessed as chymotrypsin (unknown origin)-mediated compound structural integrity change at 8 mg/ml incubated for 1 to 8 hrs by 16.5% tricine-SDS-PAGE analysis; assay type: ADME, protein assay; conditions: time 1-8 hrs
[30] = tested on: Acinetobacter baumannii; assay: Antimicrobial activity against Acinetobacter baumannii AB1902 assessed as increase in absorbance incubated for 20 to 22 hrs; assay type: functional; conditions: time 20-22 hrs
[31] = tested on: Mus musculus; assay: Anti-inflammatory activity against Escherichia coli ATCC 25922-induced peritonitis ICR mouse model assessed as decrease in IL-1 beta level in serum spleen at 10 mg/kg, ip measured after 12 hrs; assay type: functional, organism-based
[32] = tested on: Cell membrane; assay: Induction of cytoplasmic membrane (CM) permeabilization in Escherichia coli ATCC 25922 assessed as utilization of ONPG at 1/2 MIC; assay type: subcellular
[33] = Toxicity in ICR mouse assessed as liver weight change at 5 to 20 mg/kg, ip measured after 3 days; assay type: organism-based; conditions: in vivo, 72 h, dose 5-20 mg/kg, time 3 day
[34] = tested on: Cell membrane; assay: Induction of depolarization of cytoplasmic membrane (CM) in Escherichia coli ATCC 25922 assessed as fluorescence changes at 1/2 to 3 times of MIC measured after 1000 to 3000 seconds by fluorescent probe DiSC3-5 assay; assay type: subcellular; conditions: time 1000-3000 sec
[35] = tested on: HEK-293T; assay: Cytotoxicity against human HEK293T cells assessed as cell death measured after 18 to 24 hrs by MTT assay; assay type: functional; conditions: time 18-24 hrs
[36] = tested on: Escherichia coli; assay: Induction of membrane damage in Escherichia coli ATCC 25922 assessed as ruptured membrane by analysing green fluorescence at 8 uM measured after 1 hr incubation by SYTO - live and dead staining based fluorescence microscopy; assay type: functional, organism-based
[37] = tested on: Escherichia coli; assay: Antimicrobial activity against Escherichia coli K88 assessed as increase in absorbance incubated for 20 to 22 hrs; assay type: functional; conditions: time 20-22 hrs

Which MIC [1] does the source give for `CCCCCCCCCC(=O)NCCCC[C@H](N)C(=O)NCC(=O)NCC(=O)NCC(=O)N[C@H](CCCNC(=N)N)C(=O)N[C@@H](CCCNC(=N)N)C(=O)N[C@@H](CCCNC(=N)N)C(=O)N1CCC[C@H]1C(=O)N[C@@H](CSSC[C@H](NC(=O)[C@@H]1CCCN1C(=O)[C@H](CCCNC(=N)N)NC(=O)[C@H](CCCNC(=N)N)NC(=O)[C@@H](CCCNC(=N)N)NC(=O)CNC(=O)CNC(=O)CNC(=O)[C@@H](N)CCCCNC(=O)CCCCCCCCC)C(=O)O)C(=O)O` here?
The MIC was 4 µM (≈ 9.12 µg/mL).

What about the Activity [2] of the same compound?
Its Activity is “Active”.

What about the Activity [3] of the same compound?
Its Activity is “Non-toxic”.

And the “fold change (FC)” value [4]?
The value was “<=2”.

What about the Activity [5] of the same compound?
The Activity was “Active; Negligible Alteration In Mic Values Found”.

And the Activity [6]?
Its Activity is “Non-toxic”.

What about the Activity [7] of the same compound?
The Activity was “Active; Negligible Alteration In Mic Values Found”.

And the Activity [8]?
Its Activity is “Active”.

And the Activity [9]?
Its Activity is “inactive”.

And the MIC [10]?
The MIC was 4 µM (≈ 9.12 µg/mL).

What about the MIC [11] of the same compound?
Its MIC is 4 µM (≈ 9.12 µg/mL).

And the IC10 [12]?
The IC10 was 256 µM.

What about the Activity [13] of the same compound?
The Activity was “Active”.

What about the Activity [14] of the same compound?
The Activity was “Active”.

And the Activity [15]?
The Activity was “Active”.

What about the HC10 [16] of the same compound?
The HC10 was 256 µM.

What about the Activity [17] of the same compound?
The Activity was “Active; C-C10)C-C Demonstrated Superior Physiological Salt Tolerance In Comparison To (N-C10)C-C”.

And the MIC [18]?
The MIC was 4 µM (≈ 9.12 µg/mL).

What about the Activity [19] of the same compound?
The Activity was “Dose-dependent-effect”.

What about the Activity [20] of the same compound?
Its Activity is “Active”.

And the Activity [21]?
Its Activity is “Active”.

What about the Stability [22] of the same compound?
The Stability was “Stable”.

And the Activity [23]?
The Activity was “Active; Negligible Alteration In Mic Values Found”.

What about the Activity [24] of the same compound?
Its Activity is “Time-dependent-effect”.

What about the Stability [25] of the same compound?
The Stability was “Stable”.

What about the Activity [26] of the same compound?
Its Activity is “Non-toxic”.

What about the Activity [27] of the same compound?
Its Activity is about 80%.

What about the Activity [28] of the same compound?
The Activity was “Active; C-C10)C-C Demonstrated Superior Physiological Salt Tolerance In Comparison To (N-C10)C-C”.

And the Stability [29]?
The Stability was “Stable”.

And the MIC [30]?
Its MIC is 8 µM (≈ 18.2 µg/mL).

What about the Activity [31] of the same compound?
The Activity was “Active”.

What about the Activity [32] of the same compound?
Its Activity is “Active”.

And the Activity [33]?
The Activity was “Non-toxic”.

What about the Activity [34] of the same compound?
Its Activity is “Dose-dependent-effect”.

And the IC10 [35]?
The IC10 was 256 µM.

What about the Activity [36] of the same compound?
The Activity was “Active”.

What about the MIC [37] of the same compound?
Its MIC is 2 µM (≈ 4.56 µg/mL).
